Marks after values point to notes of the source that are not given here.
Legend:
Assay type in all cases: in vivo
[1] = test system: female SD rat; assay: Agonistic (estrogenic) activity: immature rat uterine weight (Example 1(2)); details: for Uterine weight / Ratio: substance alone; for Uterine weight: once a day for 3 days, mean ± standard error; for Ratio: uterine weight vs control group (100%), 3 days
Experimental: A 17-days old female SD rat (purchased from Japan SLC) was received together with its mother, weaned at 20 days of age, and subjected to experiments from the next day. Five ml per kg body weight of EGCG (Sigma) or bisphenol-A (hereinafter referred to as BisA, Tokyo Kasei Kogyo) suspended in peanut oil (Nacalai Tesque) was administered orally and forcibly. Peanut oil was administered to a control rat in a similar manner. Administration was carried out once a day for three successive days. The uterine removed 24 hours after the last administration was weighed. BisA or EGCG (80 or 800 mg/kg) was administered. […]

[2] = test system: female SD rat; assay: Antagonistic (anti-estrogenic) activity of EGCG against bisphenol-A, immature rat uterine weight (Example 1(3)); details: BisA 800 mg/kg + EGCG 800 mg/kg oral at the same time
Experimental: A 17-days old female SD rat (purchased from Japan SLC) was received together with its mother, weaned at 20 days of age, and subjected to experiments from the next day. Five ml per kg body weight of EGCG (Sigma) or bisphenol-A (hereinafter referred to as BisA, Tokyo Kasei Kogyo) suspended in peanut oil (Nacalai Tesque) was administered orally and forcibly. Peanut oil was administered to a control rat in a similar manner. Administration was carried out once a day for three successive days. The uterine removed 24 hours after the last administration was weighed. BisA (800 mg/kg) and EGCG (800 mg/kg) were administered at the same time.

[3] = test system: female SD rat; assay: Anti-estrogenic activity of solution of EGCG in ethanol against bisphenol-A, rat uterine weight (Example 2); details: for Uterine weight: 30 minutes before BisA; for Ratio: vs control (100%)
Experimental: A 17-days old female SD rat (purchased from Japan SLC) was received together with its mother, weaned at 20 days of age, and subjected to experiments from the next day. BisA was weighed such that it would be administered at 200 or 40 mg/kg and dissolved in a small volume of ethanol. Peanut oil was added thereto to result in a final ethanol concentration of 5%. The resulting mixture was orally administered for three successive days. The uterine removed on the next day was weighed. EGCG was dissolved by adding ethanol and water was then added thereto to adjust the final ethanol concentration to 10%. The solution was orally administered on the day before the administration of BisA and 30 minutes before each of the successive administrations of BisA.

[4] = test system: female SD rat; assay: Anti-estrogenic activity of solution of EGCG in ethanol against 4-nonylphenol, rat uterine weight (Example 3); details: NP 50 mg/kg oral + EGCG 200 mg/kg oral in 10% ethanol
Experimental: A 16-days old female SD rat (Japan SLC) was purchased together with its mother, weaned at 19 days of age, and subjected to experiments from the next day.
4-Nonylphenol (hereinafter referred to as NP) was weighed such that it would be administered at 50 mg/kg and diluted by adding peanut oil thereto. The resulting mixture was orally administered for three successive days. The uterine removed on the day after the third administration day was weighed. EGCG was dissolved by adding ethanol and water was then added thereto to adjust the final ethanol concentration to 10%. The solution was orally administered 90 minutes before the administration of NP.

[5] = test system: female SD rat; assay: Effect of ethanol concentration on anti-estrogenic activity of EGCG, rat uterine weight (Example 4); details: for Uterine weight: 90 minutes before BisA; for Ratio: vs control (100%)
Experimental: (§1) A 16-days old female SD rat (Japan SLC) was purchased together with its mother, weaned at 19 days of age, and subjected to experiments from the next day. BisA was weighed such that it would be administered at 40 mg/kg and dissolved in a small volume of ethanol. Peanut oil was added thereto to result in a final ethanol concentration of 5%. The resulting mixture was subcutaneously administered for three successive days. The uterine removed on the day after the third administration day was weighed. EGCG (200 mg/kg) was dissolved by adding ethanol and water was then added thereto to adjust the final ethanol concentration to 10, 5, 1, 0.5 or 0%. The solution was orally administered 90 minutes before the administration of BisA.

[6] = test system: female SD rat; assay: Anti-estrogenic activity of solution of EGCG in ethanol, subcutaneous BisA, rat uterine weight (Example 5); details: for Uterine weight / Ratio: 30 minutes before BisA; for Ratio: vs control (100%)
Experimental: as §1, with “10” for “10, 5, 1, 0.5”, “30” for “90”

[7] = test system: female SD rat; assay: Dose dependency of anti-estrogenic activity of solution of EGCG in ethanol, rat uterine weight (Example 6); details: for Uterine weight: 30 minutes before BisA; for Ratio: vs control (100%)
Experimental: as §1, with “subcutaneously or orally” for “subcutaneously”, “EGCG” for “EGCG (200 mg/kg)”, “10%.” for “10, 5, 1, 0.5 or 0%.”, “30” for “90”

[8] = BisA 40 mg/kg oral + EGCG 100 mg/kg oral in 10% ethanol
[9] = BisA 200 mg/kg oral + EGCG 100 mg/kg oral in 10% ethanol
[10] = BisA 200 mg/kg oral + EGCG 200 mg/kg oral in 10% ethanol
[11] = BisA 40 mg/kg s.c. + EGCG 200 mg/kg oral in 0 % ethanol
[12] = BisA 40 mg/kg s.c. + EGCG 200 mg/kg oral in 0.5% ethanol
[13] = BisA 40 mg/kg s.c. + EGCG 200 mg/kg oral in 1 % ethanol
[14] = BisA 40 mg/kg s.c. + EGCG 200 mg/kg oral in 5 % ethanol
[15] = BisA 40 mg/kg s.c. + EGCG 200 mg/kg oral in 10 % ethanol
[16] = BisA 40 mg/kg s.c. + EGCG 200 mg/kg oral in 0% ethanol
[17] = BisA 40 mg/kg s.c. + EGCG 200 mg/kg oral in 10% ethanol
[18] = BisA 40 mg/kg oral + EGCG 40 mg/kg oral in 10% ethanol
[19] = BisA 40 mg/kg subcutaneous + EGCG 40 mg/kg oral in 10% ethanol
[20] = BisA 40 mg/kg subcutaneous + EGCG 100 mg/kg oral in 10% ethanol

SMILES: O=C(O[C@@H]1Cc2c(O)cc(O)cc2O[C@@H]1c1cc(O)c(O)c(O)c1)c1cc(O)c(O)c(O)c1 [EGCG, epigallocatechin gallate]
- increased uterine weight (in words) ([1]; EGCG alone, 80 or 800 mg/kg oral): did not result in increased uterine weight
- Uterine weight ([1]; 80 mg/kg oral in peanut oil): 42.2 ± 1.7 mg
- Uterine weight ([1]; 800 mg/kg oral in peanut oil): 39.3 ± 3.2 mg
- Ratio ([1]; 80 mg/kg oral): 104%
- Ratio ([1]; 800 mg/kg oral): 97%
- Uterine weight ([2]; in peanut oil, mean ± standard error): 43.0 ± 2.7 mg
- Ratio ([2]; vs control (100%)): 116%
- Uterine weight [3, 8]: 41.2 ± 2.2 mg
- Uterine weight [3, 9]: 47.4 ± 2.6 mg
- Uterine weight [3, 10]: 39.8 ± 4.5 mg
- Ratio [3, 8]: 95%
- Ratio [3, 9]: 109%
- Ratio [3, 10]: 92%
- Uterine weight ([4]; 90 minutes before NP): 33.7 ± 1.9 mg
- Ratio ([4]; vs control (100%)): 109%
- Uterine weight [5, 11]: 43.3 ± 1.8 mg
- Uterine weight [5, 12]: 40.9 ± 1.8 mg
- Uterine weight [5, 13]: 40.1 ± 2.0 mg
- Uterine weight [5, 14]: 37.6 ± 1.8 mg
- Uterine weight [5, 15]: 37.0 ± 1.3 mg
- Ratio [5, 11]: 161%
- Ratio [5, 12]: 152%
- Ratio [5, 13]: 149%
- Ratio [5, 14]: 140%
- Ratio [5, 15]: 138%
- Uterine weight [6, 16]: 50.9 ± 2.2 mg
- Uterine weight [6, 17]: 36.4 ± 1.4 mg
- suppression of the increase in uterine weight (in words) ([6]; BisA 40 mg/kg s.c. + EGCG 200 mg/kg oral without ethanol): the increase was not suppressed
- Ratio [6, 16]: 165%
- Ratio [6, 17]: 118%
- Uterine weight [7, 18]: 34.8 ± 2.8 mg
- Uterine weight [7, 8]: 33.0 ± 4.4 mg
- Uterine weight [7, 19]: 44.4 ± 1.5 mg
- Uterine weight [7, 20]: 39.6 ± 1.0 mg
- Ratio [7, 18]: 106%
- Ratio [7, 8]: 101** %
- Ratio [7, 19]: 136%
- Ratio [7, 20]: 121*** %
